{"source": "patent US8642770B2", "about": "“Indole derivative” (Takeda Pharmaceutical Company Limited, priority 2010, dated 2014)", "key": {"human MCHR1 [1]": {"molecular_target": "T1, human MCHR1 (Homo sapiens, UniProt Q99705)", "T1 construct": "expressed in transfected cells; host or cells: CHO cell clone 57 (membrane fraction)", "T1 sequence (Q99705 whole entry)": "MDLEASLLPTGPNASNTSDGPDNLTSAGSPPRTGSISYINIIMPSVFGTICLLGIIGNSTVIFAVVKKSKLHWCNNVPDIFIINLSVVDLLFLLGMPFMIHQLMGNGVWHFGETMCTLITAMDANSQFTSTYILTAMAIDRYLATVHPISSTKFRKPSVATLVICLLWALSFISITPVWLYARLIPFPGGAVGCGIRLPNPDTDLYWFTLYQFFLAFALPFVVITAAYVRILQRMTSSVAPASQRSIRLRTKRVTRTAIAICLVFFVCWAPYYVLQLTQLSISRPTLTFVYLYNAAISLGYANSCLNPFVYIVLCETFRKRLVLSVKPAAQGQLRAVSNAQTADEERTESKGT", "experiment": "Human MCH receptor 1 (MCHR1) competitive binding assay, [125I]-MCH(4-19), CHO cell membrane fraction", "conditions": "test compound 0.1 μM, human MCHR1-expressing CHO cell membrane, 25° C., 1 hr, read-out: Binding inhibition rate (0.1 μM)", "experimental": "Determination of Human MCH Receptor 1 (MCHR1) Competitive Inhibitory Activity of Test Compound Using Binding Assay\nUsing human MCHR1(=SLC-1 receptor)-expressing CHO cell clone 57 and rat MCHR1-expressing CHO cell clone 44 described in WO01/82925, MCHR1-expressing CHO cellular membrane fractions were prepared by the following method. In phosphate buffered saline (pH 7.4) supplemented with 5 mM EDTA (ethylenediaminetetraacetic acid) were respectively suspended human and rat MCHR1-expressing CHO cells (1×10^8 cells) and centrifuged. Homogenate buffer (10 mL, 10 mM NaHCO3, 5 mM EDTA, pH 7.5, 0.5 mM PMSF (phenylmethylsulfonyl fluoride), 20 mg/L leupeptin, 4 mg/L E-64, 1 mg/L pepstatin A) was added to the pellets of the cells and, using Polytron Homogenizer, the mixture was homogenated. The supernatant obtained after centrifugation at 400×g for 10 min was further centrifuged at 100,000×g for 1 hr to give precipitate of the membrane fraction. The precipitate were suspended in 2 mL of assay buffer [20 mM Tris-HCl (pH 7.5), 5 mM EDTA, 0.5 mM PMSF, 20 mg/L leupeptin, 4 mg/L E-64, 1 mg/L pepstatin A]. The membrane fractions were suspended in assay buffer to a protein concentration of 2 mg/mL, and after dispensing, preserved at −80° C. and used upon thawing each time when in use.\nThe MCHR1 ligand binding inhibitory activity of the test compound was determined as follows. An MCHR1-expressing CHO cellular membrane fraction (175 μL) diluted with an assay buffer was dispensed to a 96 well polypropylene plate (3363, Corning). DMSO solution (2 μL), 100 μm cold MCH(1-19) diluted with DMSO solution (2 μL), or a test compound solution diluted with DMSO solution to various concentrations (2 μL) was added, and lastly, [^125I]-MCH(4-19) diluted with assay buffer (25 μL) was added to each well. The reaction mixture was reacted at 25° C. for 1 hr with stirring, and the reaction mixture was filtered by suction using a glass filter plate (GF/C, PerkinElmer). The filter was washed 3 times with a wash solution (300 μL, 50 mM Tris-HCl buffer, pH 7.5). The glass filter plate was dried, a liquid scintillator was added at 25 μL/well, and the residual radioactivity was measured by TopCount (PerkinElmer). The binding inhibition rate of the test compound was calculated by the following formula. Binding inhibition (%)=(radioactivity upon addition of test compound and hot MCH−radioactivity upon addition of cold MCH and hot MCH solution)/(radioactivity upon addition of DMSO solution and hot MCH−radioactivity upon addition of cold MCH and hot MCH solution)×100"}, "human MCHR1 [2]": {"molecular_target": "T1, human MCHR1", "experiment": "MCH receptor 1 antagonistic activity, Ca2+ mobilization assay in human MCHR1-expressing CHO cells", "assay_type": "cell-based", "conditions": "test compound 0.1 μM; human MCHR1-expressing CHO cell; ligand MCH (4-19) peptide 20 nM; Fluo4 fluorescence; read-out: Inhibition rate (%)", "experimental": "Measurement of MCH Receptor 1 Antagonistic Activity of Test Compound Using Ca^2+ Mobilization Assay\nCHO cell (CHO dhfr^−, clone #4) expressing a recombinant human MCHR1 gene for Ca^2+ mobilization assay was prepared by us. The cell was cultured in MEMα medium [445 mL of MEMα medium without nucleic acid and added with 5 mL of Penicillin-Streptomycin (Invitrogen) and 50 mL of dialyzed fetal bovine serum]. An integrated dispensing function fluorometer (CellLux, PerkinElmer) was used for Ca^2+ mobilization assay. CHO cells were sown in a 96 well plate (type 3904, Corning) with a black plate wall and clear well bottom at a density of 20000 cells/well, and cultured in an incubator for about 24 hr at 5% CO2, 37° C. The medium was removed, and the cells were washed with phosphate buffered saline (PBS). A Ca^2+ indicator dye reagent (DOJINDO LABORATORIES, Ca screening no-wash kit Fluo4) was added at 90 μL/well, and the dye was allowed to penetrate into the cell for 30 min in an incubator at 5% CO2, 37° C. The plate was set on a plate reader, a test compound solution diluted with an assay buffer [10 mM HEPES (pH 7.4), 1× assay buffer containing 0.1% BSA (DOJINDO LABORATORIES, attached to Ca screening no-wash kit Fluo4)] or DMSO solution was added at 10 μL/well, and ligand MCH (4-19) peptide (final concentration 20 nM) diluted with assay buffer or DMSO was added at 50 μL/well, during which changes in intracellular fluorescence were measured at 2 second intervals. The antagonistic activity of the test compound was calculated and shown as an inhibition rate (%) wherein the intracellular fluorescence activity resulting from the stimulation by the addition of ligand MCH (4-19) peptide was 100% and that of the well added with DMSO solution alone was 0%."}, "[3]": {"test_system": "Dietary obese male F344/Jcl rats", "experiment": "Anorectic effect (food intake) in dietary obese male F344/Jcl rats", "assay_type": "in vivo", "conditions": "Rattus norvegicus, 48 h; oral, 0.5% methylcellulose suspension (5 mg/mL) at 2 mL/kg, on start day and evening of next day; food intake from initial administration to 2 days later; vs control group; read-out: Food intake inhibition rate (%)", "excerpt": "Evaluation of Anorectic Effect Using Dietary Obese Male F344/Jcl Rats\nDietary obese male F344/Jcl rats (42-57-week-old) reared on a high-fat diet (Research Diets: D12451) from 5 weeks of age were used. From before the start of experiment, the rats were independently raised, a powder high-fat diet (Research Diets: D12451M) was given, tap water was orally administered for acclimation, and thereby the rats were habituated. The food intake from the evening of the day before the start of experiment to the next morning was measured, and the rats were grouped based on the food intake and the body weight of the previous day as indices. On the day of the start of experiment and in the evening of the next day, 0.5% methylcellulose solution was orally administered to the control group, and 0.5% methylcellulose suspension (5 mg/mL) of the test compound was orally administered to the compound administration group at 2 mL/kg (6 per group for both control group and compound administration group). The food intake from the initial administration to 2 days later was measured. The food intake inhibition rate of each compound administration group to the control group was calculated."}}, "data": [{"smiles": "Cc1c(NC(=O)c2ccc(OC[C@@H]3CCCO3)cc2F)ccc2c1cc(CNCC(C)(C)O)n2C", "note": "[Example 60, 2-fluoro-N-(2-{[(2-hydroxy-2-methylpropyl)amino]methyl}-1,4-dimethyl-1H-indol-5-yl)-4-[(2S)-tetrahydrofuran-2-ylmethoxy]benzamide]", "values": [{"measurement": "inhibition at 0.1 µM", "setting": "human MCHR1 [1]", "result": 98, "unit": "%"}, {"measurement": "inhibition at 0.1 µM", "setting": "human MCHR1 [2]", "result": 97, "unit": "%"}, {"measurement": "inhibition in vivo at 10 mg/kg", "setting": "[3]", "result": 19.9, "unit": "%"}, {"measurement": "melting point", "result": 118, "unit": "°C"}]}]}
